Assay results as given in PubChem BioAssay AID2060895 (Molecular Pharmacology Branch, DTP, NCI, 2025).
pIC50: −log10 of the molar value.

System: PDC 899932-113-R3-J6 complex spheroid viability
Test: Anticancer human tumor 899932-113-R3-J6-PDC patient-derived melanoma cell line growth inhibition [RAS]
Conditions: for pIC50: curve of first compound; for viability, T/C: stronger effect = lower value
In short: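 Multi-cell-type spheroids: tumor cells plus HUVEC endothelial cells and mesenchymal stem cells. RAS-pathway inhibitors were combined with targeted agents, each dosed in half-log steps down from clinical Cmax, or from 10 microM when Cmax was unknown.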

[1] = second compound 0.000949 µM, first compound 0.000949 µM
[2] = second compound 0.000949 µM, first compound 0.003 µM
[3] = second compound 0.000949 µM, first compound 0.00949 µM
[4] = second compound 0.000949 µM, first compound 0.03 µM
[5] = second compound 0.000949 µM, first compound 0.0949 µM
[6] = second compound 0.000949 µM, first compound 0.3 µM
[7] = second compound 0.003 µM, first compound 0.000949 µM
[8] = second compound 0.003 µM, first compound 0.003 µM
[9] = second compound 0.003 µM, first compound 0.00949 µM
[10] = second compound 0.003 µM, first compound 0.03 µM
[11] = second compound 0.003 µM, first compound 0.0949 µM
[12] = second compound 0.003 µM, first compound 0.3 µM
[13] = second compound 0.00949 µM, first compound 0.000949 µM
[14] = second compound 0.00949 µM, first compound 0.003 µM
[15] = second compound 0.00949 µM, first compound 0.00949 µM
[16] = second compound 0.00949 µM, first compound 0.03 µM
[17] = second compound 0.00949 µM, first compound 0.0949 µM
[18] = second compound 0.00949 µM, first compound 0.3 µM
[19] = second compound 0.03 µM, first compound 0.000949 µM
[20] = second compound 0.03 µM, first compound 0.003 µM
[21] = second compound 0.03 µM, first compound 0.00949 µM
[22] = second compound 0.03 µM, first compound 0.03 µM
[23] = second compound 0.03 µM, first compound 0.0949 µM
[24] = second compound 0.03 µM, first compound 0.3 µM
[25] = second compound 0.0949 µM, first compound 0.000949 µM
[26] = second compound 0.0949 µM, first compound 0.003 µM
[27] = second compound 0.0949 µM, first compound 0.00949 µM
[28] = second compound 0.0949 µM, first compound 0.03 µM
[29] = second compound 0.0949 µM, first compound 0.0949 µM
[30] = second compound 0.0949 µM, first compound 0.3 µM
[31] = second compound 0.3 µM, first compound 0.000949 µM
[32] = second compound 0.3 µM, first compound 0.003 µM
[33] = second compound 0.3 µM, first compound 0.00949 µM
[34] = second compound 0.3 µM, first compound 0.03 µM
[35] = second compound 0.3 µM, first compound 0.0949 µM
[36] = second compound 0.3 µM, first compound 0.3 µM
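For viability, T/C in this document: spheroids exposed to agents for seven days before readout; 100% = DMSO vehicle control wells.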

SMILES: CC1(C)CCC(Nc2ncc(C(F)(F)F)c(-c3c[nH]c4c(P(C)(C)=O)c(C#N)ccc34)n2)CN1 (centres undefined) + CCn1c(-c2cccnc2C(C)OC)c2c3cc(ccc31)N1CCOC(CC(NC(=O)C(C(C)C)N(C)C(=O)C3(F)CCN(C(=O)C#CC(C)(C)N(C)C)CC3)C(=O)N3CCCC(N3)C(=O)OCC(C)(C)C2)C1
- pIC50 (second compound 0.000949 µM): 7.59
- pIC50 (second compound 0.003 µM): 7.70
- pIC50 (second compound 0.00949 µM): 7.67
- pIC50 (second compound 0.03 µM): 7.57
- pIC50 (second compound 0.0949 µM): 7.65
- pIC50 (second compound 0.3 µM): 7.73
- viability, T/C [1]: 105%
- viability, T/C [2]: 75.8%
- viability, T/C [3]: 62.9%
- viability, T/C [4]: 52.4%
- viability, T/C [5]: 34%
- viability, T/C [6]: 15.1%
- viability, T/C [7]: 112%
- viability, T/C [8]: 78.6%
- viability, T/C [9]: 61.3%
- viability, T/C [10]: 43.4%
- viability, T/C [11]: 37.8%
- viability, T/C [12]: 15.5%
- viability, T/C [13]: 98.1%
- viability, T/C [14]: 86.6%
- viability, T/C [15]: 61.9%
- viability, T/C [16]: 41%
- viability, T/C [17]: 34.4%
- viability, T/C [18]: 15%
- viability, T/C [19]: 104%
- viability, T/C [20]: 88.2%
- viability, T/C [21]: 64.7%
- viability, T/C [22]: 46.5%
- viability, T/C [23]: 36.2%
- viability, T/C [24]: 20.2%
- viability, T/C [25]: 100%
- viability, T/C [26]: 75.6%
- viability, T/C [27]: 59.8%
- viability, T/C [28]: 47.4%
- viability, T/C [29]: 35.6%
- viability, T/C [30]: 20.6%
- viability, T/C [31]: 79.3%
- viability, T/C [32]: 71.8%
- viability, T/C [33]: 57.1%
- viability, T/C [34]: 43.5%
- viability, T/C [35]: 37.4%
- viability, T/C [36]: 28.4%

SMILES: CCc1c2c(nc3ccc(O)cc13)-c1cc3c(c(=O)n1C2)COC(=O)[C@]3(O)CC + CCn1c(-c2cccnc2C(C)OC)c2c3cc(ccc31)N1CCOC(CC(NC(=O)C(C(C)C)N(C)C(=O)C3(F)CCN(C(=O)C#CC(C)(C)N(C)C)CC3)C(=O)N3CCCC(N3)C(=O)OCC(C)(C)C2)C1
- pIC50 (second compound 0.000949 µM): 7.71
- pIC50 (second compound 0.003 µM): 7.70
- pIC50 (second compound 0.00949 µM): 7.47
- pIC50 (second compound 0.03 µM): 7.47
- pIC50 (second compound 0.0949 µM): 7.80
- pIC50 (second compound 0.3 µM): 7.76
- viability, T/C [1]: 93.4%
- viability, T/C [2]: 72%
- viability, T/C [3]: 56.4%
- viability, T/C [4]: 46.1%
- viability, T/C [5]: 39.9%
- viability, T/C [6]: 32.3%
- viability, T/C [7]: 95.3%
- viability, T/C [8]: 69.1%
- viability, T/C [9]: 57.8%
- viability, T/C [10]: 46.7%
- viability, T/C [11]: 42.2%
- viability, T/C [12]: 31.1%
- viability, T/C [13]: 93.8%
- viability, T/C [14]: 78.3%
- viability, T/C [15]: 61.4%
- viability, T/C [16]: 53.6%
- viability, T/C [17]: 39.1%
- viability, T/C [18]: 30.8%
- viability, T/C [19]: 93.7%
- viability, T/C [20]: 83.6%
- viability, T/C [21]: 59.1%
- viability, T/C [22]: 52.7%
- viability, T/C [23]: 41.9%
- viability, T/C [24]: 29.7%
- viability, T/C [25]: 88.3%
- viability, T/C [26]: 66.8%
- viability, T/C [27]: 54.1%
- viability, T/C [28]: 45.4%
- viability, T/C [29]: 39.1%
- viability, T/C [30]: 31.5%
- viability, T/C [31]: 71.1%
- viability, T/C [32]: 66.5%
- viability, T/C [33]: 52.8%
- viability, T/C [34]: 42.9%
- viability, T/C [35]: 42.8%
- viability, T/C [36]: 32.2%
